In patent EP4549436A1, “NOVEL INDENONE DERIVATIVES AND USES THEREOF” (Amyloid Solution Inc., priority 2022, dated 2024):

How the values were obtained:
[1] = system: Tau-RD3 (Tau repeat domain 3); experiment: Tau disaggregation test by thioflavin-T assay; assay type: biochemical; details: 35 µM Tau-RD3 aggregated 24 hours at 37 °C, then compound 0-500 µM for 48 hours; concentration disaggregating 50 % compared to the control
Protocol: (§1) Each compound was dissolved in DMSO to a concentration of 10 mM. Subsequently, the compound was diluted with 6 % DMSO (in DW) and used.
(§2) Specifically, amyloid-beta and tau solutions were prepared by dissolving Aβ1-42 or Tau-RD3 (Tau repeat domain 3) monomer in DMSO to a concentration of 10 mM. Thereafter, each solution was diluted with DW to a concentration of 100 µM and stored on ice. Meanwhile, thioflavin-T was dissolved in 50 mM glycine buffer (pH 8.5) to a concentration of 5 mM. Thereafter, the resulting solution was diluted with 50 mM glycine buffer (pH 8.5) to a concentration of 5 µM and stored in a dark room while light was blocked.
(§3) Each of the amyloid-beta and tau solutions prepared according to Experimental Example 1.1 was added to a 1.5 mL microcentrifuge tube to a concentration of 50 µM or 35 µM, and then a reaction was allowed to occur therebetween at 37 °C for 24 hours. Each of the 1.5 mL microcentrifuge tubes in which amyloid-beta aggregation and tau aggregation had been completed was treated with each compound at a concentrated of 500 µM to 0 µM through serial dilution, and then a further reaction was allowed to occur therebetween at 37 °C for 48 hours. 25 µL of the reaction solution in which the reaction had been completed was added to each well of a 96-well plate for fluorescence analysis, and 75µL of the previously prepared thioflavin-T solution was added to each well. After a reaction was allowed to occur at room temperature in the dark for 5 minutes, fluorescence values were measured at excitation 450 nm and emission 485 nm by using a multi-mode microplate reader.
(§4) The fluorescence value of a group (control) treated with amyloid-beta or tau alone, followed by aggregation for 72 hours was converted into a percentage value and expressed as 100, and amyloid-beta and tau aggregates, in which aggregation had been completed upon reaction for 24 hours, were treated with each compound at each concentration and a further reaction was allowed to occur therebetween for 48 hours, and then fluorescence values thereof were measured and converted into relative values. […]

[2] = system: Aβ1-42; experiment: Amyloid-beta (Aβ) disaggregation test by thioflavin-T assay; assay type: biochemical; details: 50 µM Aβ1-42 aggregated 24 hours at 37 °C, then compound 0-500 µM for 48 hours; concentration disaggregating 50 % compared to the control
Protocol: as §1, §2, §3, §4

Row | Substance | EC50 [1] | EC50 [2]
1 | 2-(4-methoxyphenyl)-3-(5-methylthiazol-4-yl)-6-(2-phenoxyethoxy)-1H-inden-1-one [Compound 21] | 173 µM | 5.2 µM
2 | 6-(2-(4-methoxyphenoxy)ethoxy)-3-(5-methylthiazol-4-yl)-2-(4-(trifluoromethyl)phenyl)-1H-inden-1-one [Compound 32] | > 500 µM | 161 µM
3 | 6-(3-phenylpropoxy)-3-(1H-pyrazol-3-yl)-2-(pyridin-3-yl)-1H-inden-1-one [Compound 7] | 133 µM | 194 µM
